Reference: patent US9434711B2 (Janssen Pharmaceutica, NV, priority 2007, dated 2016)

Biological target: canine TRPM8 (Canis lupus familiaris, UniProt Q1A7N1)
Assay: In Vitro Canine TRPM8 Functional Assay (Ca2+ fluorescence, icilin activation)
Format: cell-based
Settings: for inhibition at 0.2 µM: compound at 0.2 μM, canine TRPM8, icilin activation, read-out: % Inh @ 0.2; for IC50: HEK293 cells stably expressing canine TRPM8, icilin activation, eight-point dose-response, read-out: IC50
How it was run: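 Canine TRPM8 stably expressed in HEK293; compound added 5 min before icilin challenge (~80% max response), with fluorescent Ca2+ signal tracked throughout.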

Sequence of canine TRPM8 (Q1A7N1 1-1104): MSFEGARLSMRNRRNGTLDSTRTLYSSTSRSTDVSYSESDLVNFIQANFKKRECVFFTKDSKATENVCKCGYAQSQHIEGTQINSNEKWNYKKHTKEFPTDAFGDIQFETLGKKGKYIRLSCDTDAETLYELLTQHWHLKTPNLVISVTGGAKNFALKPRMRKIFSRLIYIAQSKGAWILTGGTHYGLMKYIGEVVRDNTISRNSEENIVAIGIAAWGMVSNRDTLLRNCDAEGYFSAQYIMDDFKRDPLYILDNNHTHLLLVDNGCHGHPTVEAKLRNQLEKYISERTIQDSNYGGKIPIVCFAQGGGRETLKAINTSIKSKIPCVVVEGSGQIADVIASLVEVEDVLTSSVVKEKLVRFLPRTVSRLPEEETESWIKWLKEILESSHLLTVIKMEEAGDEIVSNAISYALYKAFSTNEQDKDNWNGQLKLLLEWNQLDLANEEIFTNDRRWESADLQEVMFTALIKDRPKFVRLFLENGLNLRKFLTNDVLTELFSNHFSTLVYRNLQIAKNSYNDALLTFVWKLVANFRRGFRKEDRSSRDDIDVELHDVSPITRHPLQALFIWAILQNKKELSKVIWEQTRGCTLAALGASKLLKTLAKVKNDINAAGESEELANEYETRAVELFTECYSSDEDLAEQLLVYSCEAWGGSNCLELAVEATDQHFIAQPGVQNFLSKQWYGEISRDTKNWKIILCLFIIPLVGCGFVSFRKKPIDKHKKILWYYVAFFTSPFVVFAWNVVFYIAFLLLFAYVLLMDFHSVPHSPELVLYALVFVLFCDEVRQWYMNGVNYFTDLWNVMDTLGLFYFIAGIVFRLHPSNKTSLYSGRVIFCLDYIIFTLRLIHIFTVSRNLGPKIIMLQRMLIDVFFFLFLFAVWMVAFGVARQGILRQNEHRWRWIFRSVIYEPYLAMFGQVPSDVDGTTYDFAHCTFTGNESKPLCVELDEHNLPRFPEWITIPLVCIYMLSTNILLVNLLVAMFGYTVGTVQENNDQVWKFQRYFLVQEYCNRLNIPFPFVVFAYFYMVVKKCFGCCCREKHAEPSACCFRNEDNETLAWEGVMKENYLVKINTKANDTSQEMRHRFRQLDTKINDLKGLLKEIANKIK

Row | SMILES | inhibition at 0.2 µM | IC50
1 | NC1=C(N(CCC2CC2)S(=O)(=O)c2ccccc2)S(=O)(=O)c2ccccc21 [Compound 646, N-(3-Amino-1,1-dioxo-1H-benzo[b]thiophen-2-yl)-N-(2-cyclopropylethyl)-benzenesulfonamide] | 55% | –
2 | O=S1(=O)C(N(CCC2CC2)S(=O)(=O)c2ccccc2)=C(N2CCNCC2)c2ccccc21 [Compound 647, N-(2-Cyclopropyl-ethyl)-N-(1,1-dioxo-3-piperazin-1-yl-1H-1λ^6-benzo[b]thiophen-2-yl)-benzenesulfonamide] | 21% | –
3 | CNC1=C(N(Cc2ccc(F)c(C(F)(F)F)c2)S(=O)(=O)c2ccccc2)S(=O)(=O)c2ccccc21 [Compound 648, N-(4-Fluoro-3-trifluoromethyl-benzyl)-N-(3-methylamino-1,1-dioxo-1H-1λ^6-benzo[b]thiophen-2-yl)-benzenesulfonamide] | 62% | –
4 | CN1CCN(C2=C(N(Cc3ccc(F)c(C(F)(F)F)c3)S(=O)(=O)c3ccccc3)S(=O)(=O)c3ccccc32)CC1 [Compound 649, N-(4-Fluoro-3-trifluoromethyl-benzyl)-N-[3-(4-methyl-piperazin-1-yl)-1,1-dioxo-benzo[b]thiophen-2-yl]-benzenesulfonamide] | 26% | –
5 | Nc1ccc(S(=O)(=O)N(Cc2ccc(F)c(C(F)(F)F)c2)c2sc3ccccc3c2Br)cc1 [Compound 650, 4-Amino-N-(3-bromo-benzo[b]thiophen-2-yl)-N-(4-fluoro-3-trifluoromethyl-benzyl)-benzenesulfonamide] | 102% | 4 nM
6 | Nc1ccc(S(=O)(=O)N(Cc2ccc(F)c(C(F)(F)F)c2)c2sc3ccccc3c2Br)cc1Br [Compound 651, 4-Amino-3-bromo-N-(3-bromo-benzo[b]thiophen-2-yl)-N-(4-fluoro-3-trifluoromethyl-benzyl)-benzenesulfonamide] | 103% | 6 nM
7 | CS(=O)(=O)Nc1ccc(S(=O)(=O)N(Cc2ccc(F)c(C(F)(F)F)c2)c2cc3ccccc3s2)cc1 [Compound 652, N-(Benzo[b]thiophen-2-yl)-N-(4-fluoro-3-trifluoromethyl-benzyl)-4-methanesulfonylamino-benzenesulfonamide] | 102% | 85 nM
8 | Nc1ccc(S(=O)(=O)N(Cc2ccc(F)c(C(F)(F)F)c2)c2cc3ccccc3s2)cc1 [Compound 653, 4-Amino-N-(benzo[b]thiophen-2-yl)-N-(4-fluoro-3-trifluoromethyl-benzyl)-benzenesulfonamide] | 102% | 13 nM
9 | O=S(=O)(c1ccc(Br)cc1)N(CCC1CC1)c1cc2ccccc2s1 [Compound 654, N-(Benzo[b]thiophen-2-yl)-N-(2-cyclopropyl-ethyl)-4-bromo-benzenesulfonamide] | 56% | –
10 | O=S(=O)(c1ccc(Br)cc1)N(CCCCC(F)(F)F)c1cc2ccccc2s1 [Compound 655, N-(Benzo[b]thiophen-2-yl)-4-bromo-N-(5,5,5-trifluoro-pentyl)-benzenesulfonamide] | 55% | –
11 | CC(C)(O)c1c(N(CCCCC(F)(F)F)S(=O)(=O)c2ccc(Br)cc2)sc2ccccc12 [Compound 656, 4-Bromo-N-(3-(1-hydroxy-1-methyl-ethyl)-benzo[b]thiophen-2-yl)-N-(5,5,5-trifluoro-pentyl)-benzenesulfonamide] | 98% | 53.7 nM
12 | CS(=O)(=O)Nc1ccc(S(=O)(=O)N(Cc2ccc(F)c(C(F)(F)F)c2)c2sc3ccccc3c2Cl)cc1 [Compound 659, N-(3-Chloro-benzo[b]thiophen-2-yl)-N-(4-fluoro-3-trifluoromethyl-benzyl)-4-methanesulfonylamino-benzenesulfonamide] | 100% | 14.1 nM
13 | CS(=O)(=O)Nc1ccc(S(=O)(=O)N(Cc2ccc(F)c(C(F)(F)F)c2)c2sc3ccccc3c2Br)cc1 [Compound 660, N-(3-Bromo-benzo[b]thiophen-2-yl)-N-(4-fluoro-3-trifluoromethyl-benzyl)-4-methanesulfonylamino-benzenesulfonamide] | 100% | 11.2 nM
14 | CS(=O)(=O)Nc1ccc(S(=O)(=O)N(Cc2ccc(F)c(C(F)(F)F)c2)c2sc3ccccc3c2Br)cc1Br [Compound 661, 3-Bromo-N-(3-bromo-benzo[b]thiophen-2-yl)-N-(4-fluoro-3-trifluoromethyl-benzyl)-4-methanesulfonylamino-benzenesulfonamide] | 100% | 14.1 nM
15 | Cc1c(N(CCCCC(F)(F)F)S(=O)(=O)C(F)(F)F)sc2ccccc12 [Compound 662, C,C,C-Trifluoro-N-(3-methyl-benzo[b]thiophen-2-yl)-N-(5,5,5-trifluoro-pentyl)-methanesulfonamide] | 50.1% | –
16 | O=S(=O)(N(Cc1ccc(F)c(C(F)(F)F)c1)c1cc2ccccc2s1)C(F)(F)F [Compound 663, N-Benzo[b]thiophen-2-yl-N-(4-fluoro-3-trifluoromethyl-benzyl)-C,C,C-trifluoro-methanesulfonamide] | 17.1% | –

Row | SMILES | inhibition at 0.2 µM | IC50
17 | Cc1c(N(Cc2ccc(F)c(C(F)(F)F)c2)S(=O)(=O)C(F)(F)F)sc2ccccc12 [Compound 664, C,C,C-Trifluoro-N-(4-fluoro-3-trifluoromethyl-benzyl)-N-(3-methyl-benzo[b]thiophen-2-yl)-methanesulfonamide] | 53.1% | –
18 | Cc1c(N(CCC2CC2)S(=O)(=O)C(F)(F)F)sc2ccccc12 [Compound 665, N-(2-Cyclopropyl-ethyl)-C,C,C-trifluoro-N-(3-methyl-benzo[b]thiophen-2-yl)-methanesulfonamide] | 27.9% | –
19 | Nc1ccc(S(=O)(=O)N(CCCCC(F)(F)F)c2sc3ccccc3c2Cl)cc1 [Compound 666, 4-Amino-N-(3-chloro-benzo[b]thiophen-2-yl)-N-(5,5,5-trifluoro-pentyl)-benzenesulfonamide] | 103% | 8.1 nM
20 | Nc1ccc(S(=O)(=O)N(CCCCC(F)(F)F)c2sc3ccccc3c2Cl)cc1Cl [Compound 667, 4-Amino-3-chloro-N-(3-chloro-benzo[b]thiophen-2-yl)-N-(5,5,5-trifluoro-pentyl)-benzenesulfonamide] | 103% | 30.1 nM
21 | Nc1ccc(S(=O)(=O)N(CCCCC(F)(F)F)c2sc3ccccc3c2Br)cc1 [Compound 668, 4-Amino-N-(3-bromo-benzo[b]thiophen-2-yl)-N-(5,5,5-trifluoro-pentyl)-benzenesulfonamide] | 103% | 5 nM
22 | Cc1c(N(Cc2ccc(F)c(C(F)(F)F)c2)S(=O)(=O)CC(F)(F)F)sc2ccccc12 [Compound 669, N-(4-Fluoro-3-trifluoromethyl-benzyl)-N-(3-methyl-benzo[b]thiophen-2-yl)-2,2,2-trifluoro-ethanesulfonamide] | 96.4% | 51.2 nM
23 | Cc1c(N(CCC2CC2)S(=O)(=O)CC(F)(F)F)sc2ccccc12 [Compound 670, N-(2-Cyclopropyl-ethyl)-N-(3-methyl-benzo[b]thiophen-2-yl)-2,2,2-trifluoro-ethanesulfonamide] | 99.1% | 39 nM
24 | Cc1c(N(CCC(F)(F)F)S(=O)(=O)CC(F)(F)F)sc2ccccc12 [Compound 671, N-(3-Methyl-benzo[b]thiophen-2-yl)-N-(3,3,3-trifluoro-propyl)-2,2,2-trifluoro-ethanesulfonamide] | 100% | 34.5 nM
25 | Cc1c(N(CCCC(F)(F)F)S(=O)(=O)CC(F)(F)F)sc2ccccc12 [Compound 672, N-(3-Methyl-benzo[b]thiophen-2-yl)-N-(4,4,4-trifluoro-butyl)-2,2,2-trifluoro-ethanesulfonamide] | 75.3% | 74.9 nM
26 | Cc1c(N(CCCCC(F)(F)F)S(=O)(=O)CC(F)(F)F)sc2ccccc12 [Compound 673, N-(3-Methyl-benzo[b]thiophen-2-yl)-N-(5,5,5-trifluoro-pentyl)-2,2,2-trifluoro-ethanesulfonamide] | 94.4% | –
27 | COC(=O)c1ccc(S(=O)(=O)N(Cc2ccc(F)c(C(F)(F)F)c2)c2sc3ccccc3c2C2CC2)cc1 [Compound 674, N-(3-Cyclopropyl-benzo[b]thiophen-2-yl)-N-(4-fluoro-3-trifluoromethyl-benzyl)-4-carbomethoxy-benzenesulfonamide] | 85.4% | 77.6 nM
28 | O=C(O)c1ccc(S(=O)(=O)N(Cc2ccc(F)c(C(F)(F)F)c2)c2sc3ccccc3c2C2CC2)cc1 [Compound 675, N-(3-Cyclopropyl-benzo[b]thiophen-2-yl)-N-(4-fluoro-3-trifluoromethyl-benzyl)-4-carboxy-benzenesulfonamide] | 100% | 2.4 nM
29 | CS(=O)(=O)Nc1ccc(S(=O)(=O)N(CCC(F)(F)F)c2sc3ccccc3c2Cl)cc1 [Compound 676, N-(3-Chloro-benzo[b]thiophen-2-yl)-4-methanesulfonylamino-N-(3,3,3-trifluoro-propyl)-benzenesulfonamide] | 102% | 25.9 nM
30 | CS(=O)(=O)Nc1ccc(S(=O)(=O)N(CCC(F)(F)F)c2sc3ccccc3c2Br)cc1 [Compound 677, N-(3-Bromo-benzo[b]thiophen-2-yl)-N-(3,3,3-trifluoro-propyl)-4-methanesulfonylamino-benzenesulfonamide] | 101% | 24.6 nM
31 | CS(=O)(=O)Nc1ccc(S(=O)(=O)N(CCCCC(F)(F)F)c2cc3ccccc3s2)cc1 [Compound 678, N-(Benzo[b]thiophen-2-yl)-4-methanesulfonylamino-N-(5,5,5-trifluoro-pentyl)-benzenesulfonamide] | 61% | –
32 | CS(=O)(=O)Nc1ccc(S(=O)(=O)N(CCCCC(F)(F)F)c2sc3ccccc3c2Cl)cc1 [Compound 679, N-(3-Chloro-benzo[b]thiophen-2-yl)-4-methanesulfonylamino-N-(5,5,5-trifluoro-pentyl)-benzenesulfonamide] | 100% | 57.9 nM
